The values below come from PubChem BioAssay (NCI).

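Where inhibition never reached the appropriate level, the endpoint shown equals the highest concentration tested. Otherwise, values were interpolated linearly from a five-concentration, 48-hour dose response in 96-well plates. TGI marks complete inhibition of growth.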 Bounds are passed on as bounds.

Holding throughout (experiment): growth of human tumour cells (NCI), 48 h
In assay [1] the test system is HOP-62 NSCLC.
Assay [2] deals with MDA-MB-231 breast.
The subject of assay [3] is HOP-92 NSCLC.
The subject of assay [4] is M14 melanoma.
Assay [5] deals with OVCAR-3 ovarian.
The subject of assay [6] is MOLT-4 leukemia.
Assay [7] has as its system NCI-H522 lung.
Assay [8] has as its system MDA-N.
Assay [9] relates to PC-3 prostate.
For assay [10], the system named is 786-0 renal.
The subject of assay [11] is MALME-3M melanoma.
The subject of assay [12] is A498 renal.
The subject of assay [13] is T-47D breast.
Assay [14] has as its system SF-539 CNS.
The subject of assay [15] is SN12C renal.
In assay [16] the test system is OVCAR-8 ovarian.
The test system of assay [17] is OVCAR-5 ovarian.
The subject of assay [18] is UO-31 renal.
The subject of assay [19] is K-562 leukemia.

Turning to `CCOC(=O)Cc1nnc2n(-c3ccccc3)c(=O)c3ccccc3n12`, the TGI in assay [1], in assay [2], in [3], in assay [4], in [5] and in [6] was greater than 100 µM each time. In addition, the TGI in assay [7], in assay [8], in assay [9], in assay [10], in [11] and in assay [12] was greater than 100 µM each time. Besides, the TGI in assay [13], in assay [14], in assay [15], in assay [16], in [17] and in [18] was greater than 100 µM each time. This molecule also showed a TGI in assay [19] greater than 100 µM.
For `COC(=O)c1ccccc1CC1Cc2cc3c(cc2C1=O)CCC3` (centres undefined), the TGI in assay [1] was greater than 94.4 µM; in [2] it was 80.2 µM; in [3], 42.4 µM; in [4], 44.5 µM; in [5] it was greater than 76.5 µM; in assay [6], 33.9 µM. In addition, the TGI in [7] is 27.1 µM; in assay [8], 10.7 µM; in assay [9], greater than 100 µM; in assay [10], 89.3 µM; in assay [11], 69.2 µM; in [12] it was greater than 61.1 µM. In addition, the TGI was 69.9 µM in assay [13]; 43.1 µM in [14]; greater than 67.2 µM in [15]; greater than 80.8 µM in assay [16]; greater than 90.8 µM in [17]; 86.3 µM in [18]. In assay [19], the TGI was found to be 44.5 µM.
For `O=C(NCCCNCCN1C(=O)c2cccc3cc([N+](=O)[O-])cc(c23)C1=O)c1cc(-c2ccccc2)nc2ccccc12`, the TGI came to 20.5 µM in assay [1]; 8.17 µM in assay [2]; 15 µM in assay [3]; 3.3 µM in assay [4]; 18.9 µM in assay [5]; 6.01 µM in assay [6]. Besides, the TGI is 9.95 µM in assay [7]; 2.89 µM in assay [8]; 16.7 µM in [9]; 9.04 µM in assay [10]; 3.24 µM in assay [11]; 8.87 µM in [12]. In addition, the TGI in assay [13] is 23.7 µM; in assay [14], 5.07 µM; in [15], 17.1 µM; in assay [16], 17 µM; in assay [17], 18.6 µM; in assay [18], 7.46 µM. For the same molecule, in assay [19], the TGI came out at 2.5 µM.
On to `CC(O)CN1c2ccccc2Sc2ccccc21` (centres undefined), for which the TGI in assay [1], in assay [2], in assay [3], in assay [4], in [5] and in assay [6] was greater than 100 µM each time. The TGI in assay [7], in assay [8], in [9], in [10], in assay [11] and in assay [12] was greater than 100 µM in each case. Besides, the TGI in [13], in assay [14], in assay [15], in [16], in assay [17] and in assay [18] was greater than 100 µM each time. For the same molecule, the TGI in assay [19] was greater than 100 µM.
For `Cc1cc2nc(C=C(C(F)(F)F)C(F)(F)F)sc2cc1C`, the TGI in [1] is 7.59 µM; in assay [2], 23.9 µM; in [3], 16.2 µM; in assay [4] it was 3.31 µM; in [5], 5.63 µM; in assay [6], greater than 100 µM. Further, the TGI was 1.01 µM in assay [7]; greater than 19.8 µM in assay [8]; 4.98 µM in assay [9]; 5.17 µM in assay [10]; 4.56 µM in [11]; 28.5 µM in assay [12]. In addition, the TGI in assay [13] turned out to be 1.78 µM; in [14], 4.31 µM; in [15] it was 1.63 µM; in [16], 4.4 µM; in [17] it was 8.66 µM; in assay [18] it was 7.17 µM. In assay [19], the TGI is greater than 100 µM.
As for `O=C1C2CCCCC2C(=O)N1n1c(-c2ccccc2)n[nH]c1=O` (centres undefined), the TGI in assay [1], in assay [2], in assay [3], in assay [4], in [5] and in assay [6] was greater than 100 µM in each case. The TGI in assay [7], in assay [8], in assay [9], in assay [10], in [11] and in [12] was greater than 100 µM each time. For the same molecule, the TGI in assay [13], in [14], in [15], in assay [16], in [17] and in assay [18] was greater than 100 µM throughout. Also, in [19], the TGI is greater than 100 µM.
